Results as given in patent publication US6417216B1 (priority 2000, dated 2002).

System: Phytophthora infestans
Assay type: in vivo
Conditions: neighbouring plot, mancozeb at 1600 g/ha

mancozeb
efficacy, compared with the composition of compounds (I) and (II): about one-half
